The source of these data is US9029413B2, “Treatment of viral infections by modulation of host cell metabolic pathways” (The Trustees of Princeton University, priority 2007, dated 2015).

“Also recorded” adds a separate entry of the source. Like-named read-outs stand apart in the source and are kept apart here.

In data set [1] the test system is HBV. The conditions noted are these: cited from earlier work.
For data set [2], the system named is HCV replicon. The conditions noted are these: cited from earlier work.
Data set [3] deals with human cytomegalovirus (HCMV). In kind it is cell-based.
In data set [4] the test system is host cells.
Method: The toxicity of the diverse ACC inhibitors on host cells was determined by visual inspection of cell lawns and neutral red viability assay.
Data set [5] addresses class III PI(3)K (Homo sapiens, UniProt Q8NEB9). To be noted: cited from earlier work.
Data set [6] concerns West Nile virus (WNV). The experiment in a line: Extracellular viral RNA from WNV-infected Vero cells, real-time quantitative RT-PCR. The class given is cell-based. To be noted: TOFA 20 μg/mL. How it is done: (§1) WNV and DV, members of the Flavivirus family of positive-strand RNA viruses, cause severe disease in humans. […] A reduction in the amount extracellular viral RNA or a delay in the accumulation of extracellular viral RNA during the drug treatment period will be indicative of anti-WNV or anti-DV activity. […] TOFA at 20 μg/mL results in ˜10-fold reduction, sometime greater, in accumulation of extracellular viral RNA. The accumulation of extracellular viral RNA is also delay compared to untreated cells.

The test system of data set [7] is HCMV. To be noted: TOFA 10 μg/mL.
Method: (§2) A non-limiting example of an assay that can be performed to assess the effect of a combination of an ACC inhibitor plus Cox inhibitor on HCMV replication follows. […] In each assay, various concentrations of TOFA can be combined with various concentrations of indomethacin and assayed for their effect on virus replication. In one preferred embodiment, a physiological concentration of indomethacin is held constant as the dose of TOFA is increased. Control cultures are treated with no drug, indomethacin alone or the various concentrations of TOFA alone. […] The antiviral effect of indomethacin plus each concentration of TOFA is then compared to the activity of indomethacin alone or the various concentrations of TOFA alone.
Data set [8] has as its system Huh7 ET cells. The experiment in a line: Toxicity in Huh7 ET cultures (neutral red dye uptake). To be noted: TOFA 10 μg/mL or 30 μg/mL.
For data set [9] the following is noted: cited from earlier work.
In data set [10] the test system is HCMV, influenza A, HIV-1, HBV or HCV. The experiment in a line: Viral replication with a combination of ACC inhibitor and HMG-CoA reductase inhibitor. To be noted: in the presence of a therapeutically effective concentration of the active form of lovastatin. The class given is cell-based.
For data set [11], the system named is Dengue virus (DV). The experiment in a line: Extracellular viral RNA from DV-infected Vero cells, real-time quantitative RT-PCR. The class given is cell-based. To be noted: TOFA 20 μg/mL. How it is done: as §1
The subject of data set [12] is HCV RNA replicon. In words: HCV RNA replicon luciferase (LUC) reporter assay in Huh7 ET cells. (In general: A replicon is a self-replicating genome or part of one, used to study replication in cells.)
In data set [13] the test system is coxsackie B3 virus. To be noted: cited from earlier work.
Data set [14] deals with hepatitis B virus (HBV) ayw strain. In words: Extracellular HBV DNA from HepG2-2.2.15 cells, real-time quantitative PCR.
Method: In one aspect, Compounds can be added to HepG2-2.2.15 culture to test whether Compound will reduce the production of secreted HBV from cells utilizing real time quantitative PCR (TaqMan) assay to measure HBV DNA copies. Specifically, confluent cultures of HepG2-2.2.15 cells cultured on 96-well flat-bottomed tissue culture plates and are treated with various concentration of daily doses of Compounds. HBV virion DNA in the culture medium can be assessed 24 hours after the last treatment by quantitative blot hybridization or real time quantitative PCR (TaqMan) assay. […] Lamivudine (3TC) can be used as a positive assay control.
As noted in section 5.4, HepG2-2.2.15 (Sells et al., PNAS 84, 1005-9, 1987) is a stable cell line containing the HBV ayw strain genome. Compounds blocking any step of viral replication and release can be assayed in these cells (Korba & Milman, Antiviral Res. 15:217-28, 1991). […] The medium with the ACC inhibitor is replaced every 24 hours, and media samples are removed after drug treatment for 24, 48, 72 or 96 hours and assayed for the presence of extracellular viral DNA by real-time quantitative PCR. A reduction in the amount extracellular viral DNA or a delay in its accumulation during the treatment period with the ACC inhibitor is indicative of anti-HBV activity. […] Lamivudine (3TC) is used as a positive assay control for inhibition of the production of extracellular HBV DNA (Korba & Gerin, Antivir. Res. 19:55-70, 1992).
The subject of data set [15] is HCMV-infected fibroblasts (MRC-5 cells). In words: Effect on the metabolome of HCMV-infected fibroblasts (LC-MS/MS). The class given is cell-based, human. The conditions noted are these: TOFA 20 μg/mL for 48 h. The method, then: Primary fibroblasts (MRC-5 cells) were grown in DMEM (high glucose) containing 7.5% FBS and infected at a multiplicity of 3.0 plaque forming units per cell (control cells were mock infected instead of virally infected). […] Mock-infected cells were then returned to growth medium (+DMSO vehicle) for 48 h. […] Metabolites were extracted into the methanol:water and samples analyzed by LC-MS/MS for a diversity of metabolites as described herein.

Data set [16] has as its system host cell. In words: Host cell toxicity of the TOFA and indomethacin combination (neutral red dye assay). The conditions noted are these: combined use of TOFA and indomethacin.
Method: as §2
The mark [17] stands for this setting: dose 30 μg/mL, MOI 3.0, 72 hours post infection, two independent experiments, each with its own controls.
The mark [18] stands for this setting: dose 60 μg/mL, MOI 3.0, 72 hours post infection.

class III PI(3)K, sequence (Q8NEB9 whole entry): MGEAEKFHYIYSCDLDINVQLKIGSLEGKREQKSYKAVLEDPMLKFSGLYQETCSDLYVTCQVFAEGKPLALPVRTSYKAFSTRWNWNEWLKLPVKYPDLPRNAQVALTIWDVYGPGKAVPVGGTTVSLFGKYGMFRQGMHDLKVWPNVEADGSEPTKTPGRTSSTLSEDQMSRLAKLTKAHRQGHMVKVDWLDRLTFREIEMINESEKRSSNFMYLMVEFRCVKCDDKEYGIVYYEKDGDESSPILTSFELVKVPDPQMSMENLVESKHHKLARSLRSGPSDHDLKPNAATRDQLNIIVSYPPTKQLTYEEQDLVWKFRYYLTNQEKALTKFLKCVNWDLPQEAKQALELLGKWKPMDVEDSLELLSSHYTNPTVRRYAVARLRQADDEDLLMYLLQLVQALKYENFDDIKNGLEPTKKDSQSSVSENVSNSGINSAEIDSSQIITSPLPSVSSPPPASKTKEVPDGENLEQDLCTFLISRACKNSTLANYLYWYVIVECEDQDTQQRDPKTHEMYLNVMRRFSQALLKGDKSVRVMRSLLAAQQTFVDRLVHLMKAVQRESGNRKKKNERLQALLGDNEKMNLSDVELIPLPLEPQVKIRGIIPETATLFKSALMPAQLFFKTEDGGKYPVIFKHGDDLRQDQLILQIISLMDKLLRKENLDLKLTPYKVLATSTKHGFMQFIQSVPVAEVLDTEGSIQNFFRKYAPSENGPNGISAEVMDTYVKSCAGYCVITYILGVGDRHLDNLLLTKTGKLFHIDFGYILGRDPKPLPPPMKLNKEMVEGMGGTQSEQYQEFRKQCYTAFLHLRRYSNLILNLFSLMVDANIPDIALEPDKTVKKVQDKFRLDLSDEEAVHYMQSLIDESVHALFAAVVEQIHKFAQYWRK

For `CC[C@H](C)C(=O)O[C@H]1C[C@@H](C)C=C2C=C[C@H](C)[C@H](CC[C@@H]3C[C@@H](O)CC(=O)O3)[C@H]21` [Lovastatin, lovastatin], in [1], the “production of infectious HBV particles” value was “does not block production of infectious HBV particles” and the “secretion of HBV surface antigen, HBsAg” value is on record as “inhibits secretion of the HBV surface antigen”. Moreover, the “inhibition of replication of HCV replicons” value in data set [2] (Huh-7 cells) is on record as “partially inhibit”.

Take `O=C(c1c2ccccc2cc2ccccc12)N1CCC(N2CCC[C@@H](C(=O)N3CCOCC3)C2)CC1` [CP-640186]: the “inhibition of HCMV replication” value in data set [3] (as stated in the text for FIGS. 18 and 19, dose not given) is given as “approximately 50 fold”. Also, in data set [3] (setting [17]), the “Fold inhibition of viral replication” value is 89.6 fold and the Viral yield came to 16000 pfu/mL. Further, the “toxicity on host cells by neutral red viability assay” value in data set [4] is given as “indistinguishable from DMSO control”.

Consider `Cn1cnc(N)c2ncnc1-2` [3-methyladenine], for which the “inhibition of HCMV replication (relative infectious units in medium)” value in data set [3] (3-methyladenine 5 mM, multiplicity of 0.01 pfu/cell) is “has antiviral activities; also recorded: inhibits the replication of human cytomegalovirus”. Also, the “inhibition of class III PI(3)K” value in [5] is reported as “inhibits class III PI(3)K”.

Take `CCOC(=O)C1(CCCCCCOc2ccc(Cl)cc2)CO1` (stereo not drawn) [Etomoxir]: the “reduction of HCMV viral replication” value in [3] (Etomoxir 5 μM, AD169, multiplicity of infection 1.0, harvested 96 hours post infection) is listed as “more than 1 log”.

As for `CCCCCCCCCCCCCCOc1ccc(C(=O)O)o1` [TOFA, 5-(tetradecyloxy)-2-furoic acid], the “reduction in accumulation of extracellular viral RNA (WNV)” value in [6] is reported as about 10 fold. Also, the figures for the “magnitude of the therapeutic effect on HCMV replication” value in data set [7] (absence of indomethacin) and in data set [7] (presence of indomethacin) were about 10 fold and about 100 fold, respectively. Moreover, the “decrease in HCMV viral replication” value in [3] was “roughly one”; in data set [3] (TOFA 20 μg/mL, MOI 3.0, GFP reporter virus, released virus only, 72 hours post infection) it was “roughly two”. Further, the “Fold inhibition of viral replication” value in data set [3] (setting [17]) is recorded as 427.6 fold; in data set [3] (setting [18]), 82499.0 fold. The Viral yield is given as 7700 pfu/mL in [3] (setting [17]) and 40 pfu/mL in [3] (setting [18]). Further, the “host cell toxicity by neutral red dye” value in data set [8] is recorded as “absence of host cell toxicity”. In [9] (rat, in vivo, 100 mg/kg/day), the adverse effects result was “no adverse effects are observed”. In addition, the teratogenicity entry in [9] (rat, in vivo, 150 mg/kg/day) is listed as “not teratogenic”. Besides, the “oral LD50” value in data set [9] (rats, oral) is given as “greater than 5,000 mg/kg”. In addition, the “reduction of the TOFA concentration required to reduce viral growth and/or replication by 10-fold” value in data set [10] was at least 2 fold. The “reduction in accumulation of extracellular viral RNA (DV)” value in data set [11] is listed as about 10 fold. For the same compound, the “reduction in LUC activity” value in data set [12] (TOFA 10 μg/mL) is listed as about 10 fold; in data set [12] (TOFA 30 μg/mL, in some experiments) it was at least 100 fold. The “sensitivity of coxsackie B3 virus” value in data set [13] is reported as “insensitive”. For the same compound, the “inhibition of HCV replication” value in data set [2] (TOFA 5 microg/ml, Huh-7 cells containing an HCV replicon) is listed as “about 3 fold”. Also, the “reduction in extracellular HBV DNA” value in [14] (TOFA 3 μg/mL) is “small but statistically significant reduction”. In addition, the “reduction in production of extracellular HBV DNA” value in data set [14] (TOFA 10 μg/mL (range ~3 to ~30-fold)) is reported as about 10 fold. Also, the “impairment of production of extracellular HBV DNA” value in data set [14] (TOFA 30 μg/mL, greater than 100-fold in some cases) is “greater than 10 fold”. In addition, the “NADP+ levels in HCMV-infected cells” value in data set [15] is listed as “falling with TOFA treatment”. In data set [15], the “citrate concentration in HCMV-infected cells” value is on record as “yet greater increases in citrate concentration”. The “malonyl-CoA concentration in HCMV-infected cells” value in data set [15] is listed as “below the limit of detection; also recorded: blocked”. Moreover, the “host cell toxicity by neutral red dye assay” value in data set [16] is “does not increase host cell toxicity”.
